What was measured:
Format in all cases: functional
Oryctolagus cuniculus [1] = species: Oryctolagus cuniculus; experiment: Tested in vitro for inhibition of aggregation induced by adenosine diphosphate (ADP) in rabbit platelet rich plasma at the dose of […]
Oryctolagus cuniculus [2] = species: Oryctolagus cuniculus; experiment: Tested in vitro for inhibition of aggregation induced by Collagen in rabbit platelet rich plasma at the dose of 10 ug/ml
Oryctolagus cuniculus [3] = species: Oryctolagus cuniculus; experiment: Tested in vitro for inhibition of aggregation induced by arachidonic acid in rabbit platelet rich plasma at the dose of 125 uM
Oryctolagus cuniculus [4] = species: Oryctolagus cuniculus; experiment: Tested for vasodilating activity using a transverse strip preparation of rabbit thoracic aorta
Oryctolagus cuniculus [5] = species: Oryctolagus cuniculus; experiment: Tested for inhibition of aggregation induced by arachidonic acid in rabbit platelet rich plasma in Vitro at the dose of 125 uM
Oryctolagus cuniculus [6] = species: Oryctolagus cuniculus; experiment: Tested for inhibition of aggregation induced by adenosine diphosphate (ADP) in rabbit platelet rich plasma in vitro at the dose of […]
Oryctolagus cuniculus [7] = species: Oryctolagus cuniculus; experiment: Tested for inhibition of aggregation induced by Collagen in rabbit platelet rich plasma in vitro at the dose of 10 ug/ml

With “SODIUM NITROPRUSSIDE [listing 1 of 2 here]” the IC50 (Oryctolagus cuniculus [1]) was 95 µM and the IC50 (Oryctolagus cuniculus [2]) was under 1000 µM.

`CC(=O)OC1N([N+](=O)[O-])C(=O)c2cc(Cl)ccc2N1[N+](=O)[O-]` (stereo unspecified) gave an IC50 (Oryctolagus cuniculus [3]) of 40 µM, an IC50 (Oryctolagus cuniculus [1]; Oryctolagus cuniculus, Plasma) of 46 µM and a pD2 (Oryctolagus cuniculus [4]) of 5.4. The IC50 (Oryctolagus cuniculus [2]; Oryctolagus cuniculus, Plasma) was 52 µM.

With “SODIUM NITROPRUSSIDE [listing 2 of 2 here]” the pD2 (Oryctolagus cuniculus [4]) was 4.08.

`CC(=O)OC1N([N+](=O)[O-])C(=O)c2ccccc2N1[N+](=O)[O-]` (stereo unspecified) showed an IC50 (Oryctolagus cuniculus [5]) of 50 µM, a pD2 (Oryctolagus cuniculus [4]) of 5.36 and an IC50 (Oryctolagus cuniculus [6]) of 48 µM. For the same compound, the IC50 (Oryctolagus cuniculus [7]) was 52 µM.

— ChEMBL document CHEMBL1127212, “Preparation and evaluation of the antiaggregating and vasodilating activities of the novel 3-nitro-4(3H)-quinazolinone derivatives” (Bioorg Med Chem Lett, 1993)
